From patent publication US20150175599A1, “FAAH Inhibitors” (Ironwood Pharmaceuticals, Inc., priority 2010, published 2015)

Legend:
FAAH = target: T1, FAAH (Homo sapiens, UniProt O00519); experiment: FAAH inhibition, human brain membrane homogenate assay; assay type: biochemical; conditions: human brain homogenate; average activity; read-out: Human brain Extract FAAH IC50
T1 construct: Reactions were initiated by adding 12.5 μg of brain microsome; tissue ABS, Inc; host or cells: human brain cerebral cortex, membrane/microsome fraction pooled from 3 donors
T1 sequence (O00519 1-579): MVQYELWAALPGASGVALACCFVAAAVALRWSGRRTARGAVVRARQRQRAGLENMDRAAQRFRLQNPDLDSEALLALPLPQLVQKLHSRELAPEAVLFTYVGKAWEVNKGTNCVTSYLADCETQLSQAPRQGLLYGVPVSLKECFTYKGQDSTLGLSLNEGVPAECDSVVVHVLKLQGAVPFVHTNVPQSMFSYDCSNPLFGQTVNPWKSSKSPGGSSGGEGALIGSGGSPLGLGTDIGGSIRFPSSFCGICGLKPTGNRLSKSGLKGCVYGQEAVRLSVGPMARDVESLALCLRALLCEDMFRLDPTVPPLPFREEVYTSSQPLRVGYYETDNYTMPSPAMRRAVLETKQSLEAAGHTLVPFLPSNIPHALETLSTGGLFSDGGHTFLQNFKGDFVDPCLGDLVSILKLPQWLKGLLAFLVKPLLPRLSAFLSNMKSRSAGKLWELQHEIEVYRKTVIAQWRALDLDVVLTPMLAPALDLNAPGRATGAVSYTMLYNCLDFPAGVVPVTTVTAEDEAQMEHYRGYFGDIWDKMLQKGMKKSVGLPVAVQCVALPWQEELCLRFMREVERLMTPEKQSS

hERG channel = target: T2, hERG channel (Homo sapiens, UniProt Q12809); experiment: hERG channel inhibition, automated patch clamp (IonWorks HT, hERG-CHO); assay type: cell-based; conditions: CHO cells expressing hERG, 600 s incubation; for inhibition at 600 s, 1 µM: 1 μM compound, read-out: hERG Channel Inhibition % (at 1 μM), vehicle-subtracted values; for inhibition at 600 s, 10 µM: 10 μM compound, read-out: hERG Channel Inhibition % (at 10 μM), vehicle-subtracted values
T2 construct: expressed in transfected cells; host or cells: CHO (hERG-CHO), under Geneticin selection
T2 sequence (Q12809 whole entry): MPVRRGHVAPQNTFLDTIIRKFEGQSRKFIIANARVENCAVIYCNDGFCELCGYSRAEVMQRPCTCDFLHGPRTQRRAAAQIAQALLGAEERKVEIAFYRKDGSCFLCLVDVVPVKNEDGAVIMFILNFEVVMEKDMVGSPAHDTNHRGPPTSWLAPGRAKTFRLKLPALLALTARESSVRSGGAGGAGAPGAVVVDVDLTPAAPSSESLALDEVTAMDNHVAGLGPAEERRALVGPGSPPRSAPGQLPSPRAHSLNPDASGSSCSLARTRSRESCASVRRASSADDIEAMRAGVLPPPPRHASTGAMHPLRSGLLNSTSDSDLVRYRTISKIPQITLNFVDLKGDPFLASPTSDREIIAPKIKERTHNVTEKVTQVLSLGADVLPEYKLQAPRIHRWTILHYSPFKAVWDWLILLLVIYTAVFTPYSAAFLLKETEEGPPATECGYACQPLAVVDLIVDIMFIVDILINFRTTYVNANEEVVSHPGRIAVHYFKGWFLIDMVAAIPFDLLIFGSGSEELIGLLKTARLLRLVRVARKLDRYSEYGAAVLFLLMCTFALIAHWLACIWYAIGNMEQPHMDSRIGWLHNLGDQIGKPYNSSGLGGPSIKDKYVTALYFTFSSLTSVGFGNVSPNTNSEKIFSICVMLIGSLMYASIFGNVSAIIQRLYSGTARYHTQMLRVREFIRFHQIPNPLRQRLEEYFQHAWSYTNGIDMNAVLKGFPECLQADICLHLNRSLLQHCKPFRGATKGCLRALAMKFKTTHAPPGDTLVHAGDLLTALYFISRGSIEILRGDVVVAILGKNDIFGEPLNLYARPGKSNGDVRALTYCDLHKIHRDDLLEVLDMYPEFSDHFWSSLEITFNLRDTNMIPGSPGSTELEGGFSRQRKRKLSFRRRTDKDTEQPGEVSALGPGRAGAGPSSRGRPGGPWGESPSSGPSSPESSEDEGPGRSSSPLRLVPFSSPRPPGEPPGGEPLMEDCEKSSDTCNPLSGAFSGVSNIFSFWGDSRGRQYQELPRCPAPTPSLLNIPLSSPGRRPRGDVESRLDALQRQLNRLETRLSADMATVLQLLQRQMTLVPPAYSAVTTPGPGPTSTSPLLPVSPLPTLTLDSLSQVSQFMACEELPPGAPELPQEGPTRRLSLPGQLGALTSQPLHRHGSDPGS
Experimental: Human ether-a-gogo-related (hERG) ion channel encodes the inward rectifying voltage gated potassium channel in the heart and has a major role during the repolarization of the cardiac action potential. It is well established that blockade of this ion channel can lead to potentially lethal arrhythmias. hERG pre-clinical safety data is often used by regulatory agencies in elucidate the toxicity profile of certain compositions. The disclosed compounds of Table 1 were tested for their ability to inhibit hERG ion channels.
Media components include F12 Nutrient Mixture (Ham) with GlutaMAX™ (Invitrogen, Cat#31765), Fetal Bovine Serum, Certified (Invitrogen, Cat#16000-044—not heat activated), and Geneticin® Selective Antibiotic (Invitrogen, Cat#10131-027).
One vial of frozen cells, at 1.62×10^6 cells are thawed into a T150 flask (BD Falcon 355001) with 40 mL of pre-warmed complete media. Cells are cultured at 37° C., 5% CO2 for four hours prior to gently changing media. 99% of cells appear attached at this time point.
The flask is media changed at 24 hours post-thaw, the cells are imaged, media changed, and returned to the incubator. At this point, the cells appear healthy and about 25% confluent in the flask. Cells are typically passed 24-48 hours after thaw according to the following intervals and densities below. Cells are incubated at 30° C. for 48 hours prior to assay.
Using an automated patch clamp apparatus (IonWorks^HT), a three pulse protocol was applied by stepping from a holding potential of −80 mV to […] for 2 s, to activate hERG channels. The membrane voltage was then stepped back to −50 mV for 2 s to evoke a tail current prior to returning to the holding potential for 1 s. This sequence was repeated a further two times. This voltage protocol was applied prior to drug (Pre compound) and after 600 s in the presence of drug (Post compound).
The amplitude of the hERG tail current was calculated by measuring the difference between the maximum current on stepping to −50 mV of the third pulse (i.e. peak of the outward hERG tail current) and the current measured immediately prior to activation of any hERG current. This parameter was assessed before (pre tail current amplitude) and after 600 s incubation (post tail current amplitude) in drug. In order to assess the amount of block produced by test compounds, the data was first filtered using the IonWorks™ software to exclude any cells where the seal resistance was less than 50 MOhm. The remaining data was then exported to an excel compatible data file and only currents with tail currents greater than 250 pA were analyzed. The post/pre tail current amplitude ratio for the third pulse was calculated for each drug and control, and presented as percent inhibition.

| Compound | IC50 (FAAH) | inhibition at 600 s, 1 µM (hERG channel) | inhibition at 600 s, 10 µM (hERG channel) |
| --- | --- | --- | --- |
| COc1ccc(Cn2c(C)c(C(=O)C(=O)Nc3ccnc(OC)c3)c3cc(OC)c(Cl)cc32)nc1 [Compound 98, 2-(6-chloro-5-methoxy-1-((5-methoxypyridin-2-yl)methyl)-2-methyl-1H-indol-3-yl)-N-(2-methoxypyridin-4-yl)-2-oxoacetamide] | < 100 nM | < 25% | < 25% |
| COc1cc(NC(=O)C(=O)c2c(C)n(Cc3ccc(F)cc3F)c3cc(F)c(OC)cc23)ccn1 [Compound 14, 2-(1-(2,4-difluorobenzyl)-6-fluoro-5-methoxy-2-methyl-1H-indol-3-yl)-N-(2-methoxypyridin-4-yl)-2-oxoacetamide] | < 100 nM | < 25% | < 25% |
| Cc1c(C(=O)C(=O)Nc2cccc(Cl)c2)c2cc(O)ccc2n1Cc1ccc(Cl)cc1 [Compound 71, 2-(1-(4-chlorobenzyl)-5-hydroxy-2-methyl-1H-indol-3-yl)-N-(3-chlorophenyl)-2-oxoacetamide] | < 100 nM | < 25% | < 25% |
| COc1cc(NC(=O)C(=O)c2c(C)n(Cc3ncc(Cl)cc3Cl)c3cc(F)c(OC)cc23)ccn1 [Compound 13, 2-(1-((3,5-dichloropyridin-2-yl)methyl)-6-fluoro-5-methoxy-2-methyl-1H-indol-3-yl)-N-(2-methoxypyridin-4-yl)-2-oxoacetamide] | < 100 nM | < 25% | < 25% |
| COc1ccc2c(C(=O)C(=O)Nc3ccnc(OC)c3)c(C)n(Cc3ccc(Cl)cc3)c2c1 [Compound 48, 2-(1-(4-chlorobenzyl)-6-methoxy-2-methyl-1H-indol-3-yl)-N-(2-methoxypyridin-4-yl)-2-oxoacetamide] | < 100 nM | < 25% | < 25% |
| COc1cc(NC(=O)C(=O)c2c(C)n(Cc3ccc(Cl)cc3)c3cc(Cl)c(OC)cc23)ccn1 [Compound 55, 2-(6-chloro-1-(4-chlorobenzyl)-5-methoxy-2-methyl-1H-indol-3-yl)-N-(2-methoxypyridin-4-yl)-2-oxoacetamide] | < 100 nM | < 25% | < 25% |
| COc1cnc2c(c1)c(C(=O)C(=O)Nc1ccnc(OC)c1)c(C)n2Cc1ccc(Cl)cc1 [Compound 38, 2-(1-(4-chlorobenzyl)-5-methoxy-2-methyl-1H-pyrrolo[2,3-b]pyridin-3-yl)-N-(2-methoxypyridin-4-yl)-2-oxoacetamide] | < 100 nM | < 25% | 25 to 50% |
| COc1ccc2c(c1)c(C(=O)C(=O)Nc1ccnc(OC)c1)c(C)n2Cc1cnc(Cl)cn1 [Compound 12, 2-(1-((5-chloropyrazin-2-yl)methyl)-5-methoxy-2-methyl-1H-indol-3-yl)-N-(2-methoxypyridin-4-yl)-2-oxoacetamide] | < 100 nM | < 25% | < 25% |
| COc1cc(NC(=O)C(=O)c2c(C)n(Cc3ccc(Cl)cc3)c3c(OC)cccc23)ccn1 [Compound 51, 2-(1-(4-chlorobenzyl)-7-methoxy-2-methyl-1H-indol-3-yl)-N-(2-methoxypyridin-4-yl)-2-oxoacetamide] | 100 to 1000 nM | < 25% | < 25% |
| COc1cc(NC(=O)C(=O)c2c(C)n(Cc3ccc(Cl)cc3)c3ccc(OC)c(F)c23)ccn1 [Compound 59, 2-(1-(4-chlorobenzyl)-4-fluoro-5-methoxy-2-methyl-1H-indol-3-yl)-N-(2-methoxypyridin-4-yl)-2-oxoacetamide] | < 100 nM | < 25% | 25 to 50% |
| COc1cc(NC(=O)C(=O)c2c(C)n(Cc3ccc(Cl)cn3)c3ccc(Cl)cc23)ccn1 [Compound 63, 2-(5-chloro-1-((5-chloropyridin-2-yl)methyl)-2-methyl-1H-indol-3-yl)-N-(2-methoxypyridin-4-yl)-2-oxoacetamide] | < 100 nM | < 25% | 50 to 75% |
| COc1cnc2c(c1)c(C(=O)C(=O)Nc1ccnc(OC)c1)c(C)n2Cc1ncc(Cl)cc1F [Compound 34, 2-(1-((5-chloro-3-fluoropyridin-2-yl)methyl)-5-methoxy-2-methyl-1H-pyrrolo[2,3-b]pyridin-3-yl)-N-(2-methoxypyridin-4-yl)-2-oxoacetamide] | < 100 nM | < 25% | < 25% |
| COc1cc(NC(=O)C(=O)c2c(C)n(Cc3ccc(Cl)cc3)c3ccc(O)cc23)ccn1 [Compound 2, 2-(1-(4-chlorobenzyl)-5-hydroxy-2-methyl-1H-indol-3-yl)-N-(2-methoxypyridin-4-yl)-2-oxoacetamide] | < 100 nM | < 25% | < 25% |
| COc1cc(NC(=O)C(=O)c2c(C)n(Cc3ccc(Cl)cn3)c3cc(Cl)c(OC)cc23)ccn1 [Compound 60, 2-(6-chloro-1-((5-chloropyridin-2-yl)methyl)-5-methoxy-2-methyl-1H-indol-3-yl)-N-(2-methoxypyridin-4-yl)-2-oxoacetamide] | < 100 nM | < 25% | 25 to 50% |
| CNc1ccc2c(c1)c(C(=O)C(=O)Nc1ccnc(OC)c1)c(C)n2Cc1ccc(Cl)cc1 [Compound 9, 2-(1-(4-chlorobenzyl)-2-methyl-5-(methylamino)-1H-indol-3-yl)-N-(2-methoxypyridin-4-yl)-2-oxoacetamide] | < 100 nM | < 25% | < 25% |
| COc1cc(NC(=O)C(=O)c2c(C)n(Cc3ccc(Cl)cc3)c3ccc(OC(F)(F)F)cc23)ccn1 [Compound 23, 2-(1-(4-chlorobenzyl)-2-methyl-5-(trifluoromethoxy)-1H-indol-3-yl)-N-(2-methoxypyridin-4-yl)-2-oxoacetamide] | < 100 nM | < 25% | 50 to 75% |
| COc1cc(NC(=O)C(=O)c2c(C)n(Cc3ccc(Cl)cn3)c3cc(OC)c(Cl)cc23)ccn1 [Compound 67, 2-(5-chloro-1-((5-chloropyridin-2-yl)methyl)-6-methoxy-2-methyl-1H-indol-3-yl)-N-(2-methoxypyridin-4-yl)-2-oxoacetamide] | < 100 nM | < 25% | < 25% |
| COc1cc(NC(=O)C(=O)c2c(C)n(Cc3ncc(Cl)cc3F)c3cc(F)c(OC)cc23)ccn1 [Compound 99, 2-(1-((5-chloro-3-fluoropyridin-2-yl)methyl)-6-fluoro-5-methoxy-2-methyl-1H-indol-3-yl)-N-(2-methoxypyridin-4-yl)-2-oxoacetamide] | < 100 nM | < 25% | < 25% |
| COc1cc(NC(=O)C(=O)c2c(C)n(Cc3ccc(Cl)cc3)c3ccc(N)cc23)ccn1 [Compound 20, 2-(5-amino-1-(4-chlorobenzyl)-2-methyl-1H-indol-3-yl)-N-(2-methoxypyridin-4-yl)-2-oxoacetamide] | < 100 nM | < 25% | < 25% |
